From patent US10576096B2, “Tumor-selective combination therapy” (priority 2013, dated 2020)
Converted amounts (≈) assume the structure as drawn.

Columns and labels:
[1] = tested on: NOD/SCID mice injected with 3LL-Luc cells; experiment: DNQ derivatives pilot study of maximum tolerated dose (MTD); settings: 7.5 mg/kg, 3 NOD/SCID mice
[2] = tested on: NOD/SCID mice injected with 3LL-Luc cells; settings: mouse, in vivo, iv
[3] = Formulation of DNQ compounds in HPβCD (solubility, solution stability); assay type: physicochemical
Excerpt: This same neutral solution of DNQ in HPβCD cannot be made directly (i.e. without pH adjustment). […] The only proton on DNQ that might reasonably be deprotonated in aqueous base is the N—H. Although the acidity of the N—H bond of DNQ has not been measured, it has been measured for a derivative of DNQ and found to have a pKa of 8.0.
The protocol for formulating DNQ compounds in HPβCD is as follows: the DNQ compound is slurried in a 20% solution of HPβCD in pH 7.4 PBS and the pH is then increased by the addition of 10 M NaOH to induce dissolution of the DNQ compound. The pH is returned to pH 7.5-8.0 by the careful addition of 1 M HCl. A 3.3 mM solution of the DNQ compound can be made by this method which is stable at least 24 hours. This represents a 30-fold increase in solubility of DNQ over PBS alone. We initially chose a 20% HPβCD solution.

[4] = Aqueous solubility in PBS pH 7.4 by LC-MS; assay type: physicochemical; settings: pH 7.4 PBS, 30 min sonication, filtered
Description: The aqueous solubility of DNQ at pH 7.4 in phosphate buffered saline (PBS) was measured by LC-MS. DNQ was sonicated for 30 minutes in PBS then undissolved solid was removed by filtration through a 0.45 μm syringe filter and the filtrate was analyzed by LC-MS (λ=275 nm, ESI-TOF in negative mode). The optimal sonication time was determined by sonicating DNQ for 1, 5, 10, and 30 minutes. While the concentration of DNQ in solution increased substantially between 1, 5, and 10 minutes, there was only a minor difference between 10 and 30 minutes. During the 30 minute sonication the water bath warmed to 45° C. (samples were cooled to room temperature before filtration). A calibration curve was generated from 1-100 μM by dissolving DNQ in methanol to a concentration of 500 μM and making dilutions of this stock in 80:20 water:methanol. The calibration curve (measure by UV absorbance) was linear over this range; 1 μM was approximately the limit of detection. […] The solution was very pale yellow.

Cc1cc(=O)[nH]c2c1C(=O)c1c(C)cc(=O)n(C)c1C2=O [DNQ, Deoxynyboquinone]
Dead mice (5 IV.) [1]: 2
MTD [2]: 6
stability of HPβCD solution ([3]; 3.3 mM in 20% HPβCD): at least 24 hours
increase in solubility over PBS alone ([3]; 20% HPβCD): 30 fold
concentration of solution in HPβCD ([3]; 20% HPβCD in pH 7.4 PBS, pH raised with NaOH then returned to 7.5-8.0): 3300 µM
concentration of solution in HPβCD ([3]; 40% HPβCD, extrapolated from linear increase with HPβCD): 6600 µM
solubility in PBS [4]: 115 µM (≈ 32.7 µg/mL)
